Measurements published in patent US20210060006A1, “COMPOSITIONS AND METHODS FOR TREATING GLIOBLASTOMA BY MODULATING A MGMT ENHANCER” (The Trustees of Columbia University in the City of New York, priority 2018, published 2021).

Tests used:
[1] = system: SKMG3 parental cells and enhancer deletion clones; assay: Clonogenic assay of TMZ sensitivity; type: cell-based, human; conditions: for IC50: Homo sapiens
Procedure: Cell viability was determined using clonogenic assay.
FIG. 5F is a summary of TMZ IC50 in SKMG3 clones with or without O6BG pre-treatment.
Clonogenic assays were performed to assess the effect of disrupted enhancer on TMZ sensitivity. Briefly, SKMG3 parental cells and enhancer deletion clones were plated in 6 wells plates (250 cells/well), treated with graded concentration of TMZ in presence or absence of O6BG and were cultured for 2 weeks. Colonies were fixed and stained with crystal violet (0.005% (w/v) Crystal violet, 25% (v/v) Methanol). Colonies with >50 cells were manually counted, IC50 calculated by GraphPad Prism 7 using multiparametric nonlinear regression model.

[2] = system: MGMT; conditions: combination with TMZ compared to TMZ alone; cited from earlier work
[3] = system: MGMT; conditions: SAHA in combination with TMZ; cited from earlier work

With `Cn1nnc2c(C(N)=O)ncn2c1=O` [TMZ, temozolomide] the IC50 ([1]; K-M enhancer deleted (3.3 kb) SKMG3 clones) was < 10 µM and the IC50 ([1]; parental SKMG3 lines and wild type control clone) was > 100 µM.

For `Nc1nc(OCc2ccccc2)c2nc[nH]c2n1` [O6BG, O6-benzylguanine], the “TMZ sensitizing effect of enhancer deletion” value ([1]; group pre-treated with 10 μM O6BG 1 h prior to temozolomide) is given as “not observed”, the clinical benefit [2] is given as “no clinical benefit” and the hematologic toxicities [2] is given as “enhanced hematologic toxicities”. For the same molecule, the therapeutic window [2] was “reduced therapeutic window”.

In the case of `O=C(CCCCCCC(=O)Nc1ccccc1)NO` [SAHA], the MGMT expression [3] is listed as “promotes elevation of MGMT expression”.
